Tests used:
Rattus norvegicus [1] = assay: Antidiuretic test on conscious rats was determined; format: functional, Urine
Rattus norvegicus [2] = organism: Rattus norvegicus; assay: Vasopressor test using phonoxybenzamine treated male rats was determined; format: functional
Rattus norvegicus [3] = organism: Rattus norvegicus; assay: In vitro biological activity in the absence of magnesium ions was determined in rats by Uterotonic test; format: functional

SMILES	Activity (Rattus norvegicus [1]) [IU mg-1]	Activity (Rattus norvegicus [2]) [IU mg-1]	Activity (Rattus norvegicus [3]) [IU mg-1]
NC(=O)CC[C@@H]1NC(=O)[C@H](Cc2ccccc2)NC(=O)[C@H](Cc2ccc(O)cc2)NC(=O)[C@@H](N)CSCSC[C@@H](C(=O)N2CCC[C@H]2C(=O)N[C@@H](CCCN=C(N)N)C(=O)NCC(N)=O)NC(=O)[C@H](CC(N)=O)NC1=O	46.5	55.3	1.4
N=C(N)NCCC[C@H](NC(=O)[C@@H]1CCCN1C(=O)[C@@H]1CSSC[C@H](N)C(=O)N[C@@H](Cc2ccc(O)cc2)C(=O)N[C@@H](Cc2ccccc2)C(=O)N[C@@H](CCC(N)=O)C(=O)N[C@@H](CC(N)=O)C(=O)N1)C(=O)NCC(N)=O [VASOPRESSIN]	465	412	17
